{
  "source": "ChEMBL document CHEMBL1141709",
  "about": "“Optimization of small molecule agonists of the thrombopoietin (Tpo) receptor derived from a benzo[a]carbazole hit scaffold” (Bioorg Med Chem Lett, 2008)",
  "key": {"[1]": {"target": "T1, Thrombopoietin receptor (Homo sapiens) (UniProt P40238)", "T1 sequence (whole entry)": "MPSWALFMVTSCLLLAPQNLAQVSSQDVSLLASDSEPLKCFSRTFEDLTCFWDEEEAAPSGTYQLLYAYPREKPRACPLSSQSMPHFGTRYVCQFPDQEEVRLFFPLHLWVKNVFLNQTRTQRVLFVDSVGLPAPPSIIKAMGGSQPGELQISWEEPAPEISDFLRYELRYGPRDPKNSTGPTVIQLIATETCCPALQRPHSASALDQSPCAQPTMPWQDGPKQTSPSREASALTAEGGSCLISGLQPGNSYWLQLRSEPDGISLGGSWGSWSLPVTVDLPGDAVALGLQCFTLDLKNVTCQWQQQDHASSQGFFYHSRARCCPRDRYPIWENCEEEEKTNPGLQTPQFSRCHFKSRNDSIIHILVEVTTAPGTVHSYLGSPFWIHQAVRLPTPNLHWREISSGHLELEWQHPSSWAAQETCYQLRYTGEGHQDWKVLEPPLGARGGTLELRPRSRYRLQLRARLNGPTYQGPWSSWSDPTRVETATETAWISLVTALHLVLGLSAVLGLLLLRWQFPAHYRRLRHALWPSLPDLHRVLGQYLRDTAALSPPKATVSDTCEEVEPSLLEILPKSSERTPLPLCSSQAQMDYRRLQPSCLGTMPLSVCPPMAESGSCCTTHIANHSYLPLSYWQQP", "assay": "Agonist activity at human thrombopoietin receptor expressed in mouse Ba/F3 cells by kinase activation based reporter gene assay relative to 30 ng/mL thrombopoietin", "assay_type": "functional, cell-based", "conditions": "BaF3"}, "Thrombopoietin receptor": {"target": "T2, Thrombopoietin receptor (Homo sapiens, UniProt P40238)", "T2 sequence (P40238 whole entry)": "T1 sequence (whole entry)", "assay": "Agonist activity at human thrombopoietin receptor expressed in mouse Ba/F3 cells by kinase activation based reporter gene assay", "assay_type": "functional, cell-based, BaF3"}, "[2]": {"target": "T1, Thrombopoietin receptor (Homo sapiens)", "assay": "Agonist activity at human thrombopoietin receptor expressed in mouse Ba/F3 cells in presence of 1 mM Zinc by kinase activation based reporter gene assay", "assay_type": "functional, cell-based", "conditions": "BaF3"}, "[3]": {"target": "T1, Thrombopoietin receptor (Homo sapiens)", "assay": "Agonist activity at human thrombopoietin receptor expressed in mouse Ba/F3 cells in presence of 1 mM Zinc by kinase activation based reporter gene assay relative to 30 ng/mL thrombopoietin", "assay_type": "functional, cell-based", "conditions": "BaF3"}, "[4]": {"assay": "Thrombopoietic activity in human megakaryocytes assessed as induction of cell differentiation by CFU-mega assay", "assay_type": "functional, cell-based"}},
  "note": "pEC50: −log10 of the molar value.",
  "data": [
    {"molecule": "CCCCc1ccc(-c2ccc3c4c([nH]c3c2F)-c2cc(NC(C)=O)c(C(=O)O)cc2C4)cc1", "values": [
      {"measurement": "Efficacy", "setting": "[1]", "value": 90, "unit": "%"},
      {"measurement": "pEC50", "setting": "Thrombopoietin receptor", "value": 6.42}
    ]},
    {"molecule": "CCCCc1ccc(-c2ccc3c4c([nH]c3c2F)-c2ccc(C(=O)O)cc2C4)cc1", "values": [
      {"measurement": "Efficacy", "setting": "[1]", "value": 151, "unit": "%"},
      {"measurement": "pEC50", "setting": "Thrombopoietin receptor", "value": 7.43}
    ]},
    {"molecule": "CCCCc1ccc(-c2ccc3c(C(C)C)c(-c4ccc(C(=O)O)c(O)c4)[nH]c3c2F)cc1", "values": [
      {"measurement": "Efficacy", "setting": "[1]", "value": 70, "unit": "%"},
      {"measurement": "pEC50", "setting": "Thrombopoietin receptor", "value": "< 6.00"}
    ]},
    {"molecule": "CCCCc1ccc(-c2ccc3c4c([nH]c3c2F)-c2ccc(C(=O)O)cc2C4(C)C)cc1", "values": [
      {"measurement": "Efficacy", "setting": "[1]", "value": 118, "unit": "%"},
      {"measurement": "pEC50", "setting": "Thrombopoietin receptor", "value": 6.95}
    ]},
    {"molecule": "CC1=NN(c2ccc(C)c(C)c2)C(=O)/C1=N\\Nc1cccc(-c2cccc(C(=O)O)c2)c1O", "note": "[ELTROMBOPAG]", "values": [
      {"measurement": "Efficacy", "setting": "[1]", "value": 127, "unit": "%"},
      {"measurement": "pEC50", "setting": "Thrombopoietin receptor", "value": 7.42}
    ]},
    {"molecule": "CCCCc1ccc(-c2ccc3nc(-c4ccc(C(=O)O)cc4)[nH]c3c2)cc1", "values": [
      {"measurement": "Efficacy", "setting": "[1]", "value": 83, "unit": "%"},
      {"measurement": "pEC50", "setting": "Thrombopoietin receptor", "value": 5.90}
    ]},
    {"molecule": "CCCCc1ccc(-c2ccc3c4c([nH]c3c2)-c2ccc(C(=O)O)cc2CC4)cc1", "values": [
      {"measurement": "pEC50", "setting": "Thrombopoietin receptor", "value": 6.95}
    ]},
    {"molecule": "CCCCc1ccc(-c2ccc3c4c([nH]c3c2)-c2ccc(C(=O)O)cc2CCC4)cc1", "values": [
      {"measurement": "EC50", "setting": "[2]", "value": 0.332, "unit": "µM"},
      {"measurement": "Efficacy", "setting": "[3]", "value": 71, "unit": "%"}
    ]},
    {"molecule": "Cc1cc(-c2ccc3c4c([nH]c3c2F)-c2ccc(C(=O)O)cc2C4)ccc1F", "values": [
      {"measurement": "Efficacy", "setting": "[1]", "value": 144, "unit": "%"},
      {"measurement": "pEC50", "setting": "Thrombopoietin receptor", "value": 7.59}
    ]},
    {"molecule": "CCCCc1ccc(-c2ccc3c(C)c(-c4ccc(C(=O)O)c(O)c4)[nH]c3c2F)cc1", "values": [
      {"measurement": "Efficacy", "setting": "[1]", "value": 119, "unit": "%"},
      {"measurement": "pEC50", "setting": "Thrombopoietin receptor", "value": 6.94}
    ]},
    {"molecule": "CCCCc1ccc(-c2ccc3c4c([nH]c3c2)-c2ccc(C(N)=O)cc2C4)cc1", "values": [
      {"measurement": "Efficacy", "setting": "[1]", "value": 118, "unit": "%"},
      {"measurement": "pEC50", "setting": "Thrombopoietin receptor", "value": 7.07}
    ]},
    {"molecule": "CCCCc1ccc(-c2ccc3c4c([nH]c3c2F)-c2cc(N)c(C(=O)O)cc2C4)cc1", "values": [
      {"measurement": "EC50", "setting": "[2]", "value": 0.341, "unit": "µM"},
      {"measurement": "Efficacy", "setting": "[3]", "value": 70, "unit": "%"}
    ]},
    {"molecule": "CCCCc1ccc(-c2ccc3c4c([nH]c3c2F)-c2ccc(NC(C)=O)cc2C4)cc1", "values": [
      {"measurement": "Efficacy", "setting": "[1]", "value": 117, "unit": "%"},
      {"measurement": "pEC50", "setting": "[4]", "value": 6.52},
      {"measurement": "pEC50", "setting": "Thrombopoietin receptor", "value": 7.60}
    ]},
    {"molecule": "Cc1cc(-c2ccc3c4c([nH]c3c2F)-c2ccc(C(N)=O)cc2COC4=O)ccc1F", "values": [
      {"measurement": "Efficacy", "setting": "[1]", "value": 0, "unit": "%"},
      {"measurement": "pEC50", "setting": "Thrombopoietin receptor", "value": "< 4.52"}
    ]},
    {"molecule": "CCCCc1ccc(-c2ccc3cc(-c4ccc(C(N)=O)cc4)[nH]c3c2F)cc1", "values": [
      {"measurement": "Efficacy", "setting": "[1]", "value": 81, "unit": "%"},
      {"measurement": "pEC50", "setting": "Thrombopoietin receptor", "value": 6.80}
    ]},
    {"molecule": "CCCCc1ccc(-c2ccc3cc(-c4ccc(C(=O)O)c(O)c4)[nH]c3c2F)cc1", "values": [
      {"measurement": "Efficacy", "setting": "[1]", "value": 141, "unit": "%"},
      {"measurement": "pEC50", "setting": "Thrombopoietin receptor", "value": 7.29}
    ]},
    {"molecule": "CCCCc1ccc(-c2ccc3nc(-c4ccc(C(=O)O)c(O)c4)[nH]c3c2)cc1", "values": [
      {"measurement": "Efficacy", "setting": "[1]", "value": 121, "unit": "%"},
      {"measurement": "pEC50", "setting": "Thrombopoietin receptor", "value": 6.75}
    ]},
    {"molecule": "CCCCc1ccc(-c2ccc3c4c([nH]c3c2F)-c2ccc(NS(C)(=O)=O)cc2C4)cc1", "values": [
      {"measurement": "EC50", "setting": "[2]", "value": 0.166, "unit": "µM"},
      {"measurement": "Efficacy", "setting": "[3]", "value": 95, "unit": "%"}
    ]},
    {"molecule": "CCCCc1ccc(-c2ccc3c4c([nH]c3c2F)-c2ccc(NC(N)=O)cc2C4)cc1", "values": [
      {"measurement": "EC50", "setting": "[2]", "value": 0.124, "unit": "µM"},
      {"measurement": "Efficacy", "setting": "[3]", "value": 128, "unit": "%"}
    ]},
    {"molecule": "CCCCc1ccc(-c2ccc3c4c([nH]c3c2)-c2ccc(C(=O)O)cc2C4)cc1", "values": [
      {"measurement": "Efficacy", "setting": "[1]", "value": 91, "unit": "%"},
      {"measurement": "pEC50", "setting": "Thrombopoietin receptor", "value": 6.80}
    ]},
    {"molecule": "CCCCc1ccc(-c2ccc3c4c([nH]c3c2F)-c2ccc(NC(=O)CO)cc2C4)cc1", "values": [
      {"measurement": "EC50", "setting": "[2]", "value": 0.087, "unit": "µM"},
      {"measurement": "Efficacy", "setting": "[3]", "value": 98, "unit": "%"}
    ]},
    {"molecule": "Cc1cc(-c2ccc3c4c([nH]c3c2F)-c2ccc(C(N)=O)cc2OC4)ccc1F", "values": [
      {"measurement": "Efficacy", "setting": "[1]", "value": 83, "unit": "%"},
      {"measurement": "pEC50", "setting": "Thrombopoietin receptor", "value": 5.84}
    ]},
    {"molecule": "CCCCc1ccc(-c2ccc3cc(-c4ccc(C(=O)O)cc4)[nH]c3c2F)cc1", "values": [
      {"measurement": "Efficacy", "setting": "[1]", "value": 112, "unit": "%"},
      {"measurement": "pEC50", "setting": "Thrombopoietin receptor", "value": 6.93}
    ]},
    {"molecule": "CCCCc1ccc(-c2ccc3c4c([nH]c3c2)-c2ccc(C(=O)O)cc2S(=O)(=O)C4)cc1", "values": [
      {"measurement": "Efficacy", "setting": "[1]", "value": 115, "unit": "%"},
      {"measurement": "pEC50", "setting": "Thrombopoietin receptor", "value": 6.35}
    ]},
    {"molecule": "CCCCc1ccc(-c2ccc3c(CC)c(-c4ccc(C(=O)O)c(O)c4)[nH]c3c2F)cc1", "values": [
      {"measurement": "Efficacy", "setting": "[1]", "value": 97, "unit": "%"},
      {"measurement": "pEC50", "setting": "Thrombopoietin receptor", "value": 6.64}
    ]},
    {"molecule": "CCCCc1ccc(-c2ccc3c4c([nH]c3c2F)-c2ccc(NC(=O)C(=O)O)cc2C4)cc1", "values": [
      {"measurement": "Efficacy", "setting": "[1]", "value": 110, "unit": "%"},
      {"measurement": "pEC50", "setting": "Thrombopoietin receptor", "value": 7.68}
    ]},
    {"molecule": "Cc1cc(-c2ccc3c4c([nH]c3c2F)-c2ccc(C(N)=O)cc2C4)ccc1F", "values": [
      {"measurement": "Efficacy", "setting": "[1]", "value": 105, "unit": "%"},
      {"measurement": "pEC50", "setting": "Thrombopoietin receptor", "value": 6.56}
    ]}
  ]
}
